Publication PMC6272684, “Synthesis, Antiproliferative and Antifungal Activities of 1,2,3-Triazole-Substituted Carnosic Acid and Carnosol Derivatives” (Molecules, 2015)

Legend:
[1] = test system: lung cancer (SK-MES-1) cells; assay: Antiproliferative assay (MTT reduction, 3 days); format: cell-based, human; details: >100 µM considered inactive, read-out: IC50 ± SD, SK-MES-1
Procedure: (§1) The antiproliferative activity towards the following human cell lines was determined: normal lung fibroblasts (MRC-5), gastric epithelial adenocarcinoma (AGS), lung cancer (SK-MES-1) and bladder carcinoma (J82) cells.
(§2) All human cell lines used in this work were purchased from the American Type Culture Collection (ATCC, Manasas, VA, USA). […] All media were supplemented with 10% heat-inactivated FBS, 100 IU∙mL^−1 penicillin and 100 µg∙mL^−1 streptomycin. Cells were grown in a humidified incubator with 5% CO2 in air at 37 °C. For the antiproliferative assay, cells were plated at a density of 5 × 10^4 cells∙mL^−1. Cells were seeded in 96-well plates (100 µL∙well^−1). One day after seeding, cells were treated with medium containing the compounds at concentrations ranging from 0 up to 100 µM during 3 days. The compounds were dissolved in DMSO (1% final concentration) and complete medium. Untreated cells (medium containing 1% DMSO) were used as 100% viability controls. […] Each concentration was tested in sextuplicate and experiments were repeated 2 times. Cell viability was determined by means of the MTT reduction assay at the end of the incubation with the products. […] The software used was OriginPro 8.1 [30].

[2] = test system: normal lung fibroblasts (MRC-5); assay: Antiproliferative assay (MTT reduction, 3 days); format: cell-based, human; details: MRC-5 normal fibroblasts, >100 µM considered inactive; for IC50: read-out: IC50 ± SD, MRC-5
Procedure: as §1, §2

[3] = test system: bladder carcinoma (J82) cells; assay: Antiproliferative assay (MTT reduction, 3 days); format: cell-based, human; details: J82 cells, 3 days, MTT; >100 µM considered inactive; read-out: IC50 ± SD, J82
Procedure: as §1, with “cells. […] When comparing the pairs 3–4, 5–6 and 7–8 differing in one CH2 unit in the linker, the activity decreased with linker length.” for “cells.”
(§3) All human cell lines used in this work were purchased from the American Type Culture Collection (ATCC, Manasas, VA, USA). Normal lung MRC-5 fibroblasts (CCL-171), SK-MES-1 lung cancer cells (HTB-58) and J82 bladder carcinoma cells (HTB-1) were grown as monolayers in minimum essential Eagle medium (MEM) with Earles’s salts, 2 mM L-glutamine and 1.5 g∙L^−1 sodium bicarbonate. Gastric adenocarcinoma AGS cells (CRL-1739) were grown as monolayers in Ham F-12 medium containing 1 mM L-glutamine and 1.5 g∙L^−1 sodium bicarbonate. All media were supplemented with 10% heat-inactivated FBS, 100 IU∙mL^−1 penicillin and 100 µg∙mL^−1 streptomycin. Cells were grown in a humidified incubator with 5% CO2 in air at 37 °C. For the antiproliferative assay, cells were plated at a density of 5 × 10^4 cells∙mL^−1. Cells were seeded in 96-well plates (100 µL∙well^−1). One day after seeding, cells were treated with medium containing the compounds at concentrations ranging from 0 up to 100 µM during 3 days. The compounds were dissolved in DMSO (1% final concentration) and complete medium. Untreated cells (medium containing 1% DMSO) were used as 100% viability controls. […] Each concentration was tested in sextuplicate and experiments were repeated 2 times. Cell viability was determined by means of the MTT reduction assay at the end of the incubation with the products. The results were transformed to percentage of controls and the IC50 value was obtained adjusting the dose-response curve to a sigmoidal model. The software used was OriginPro 8.1 [30].

[4] = test system: gastric epithelial adenocarcinoma (AGS) cells; assay: Antiproliferative assay (MTT reduction, 3 days); format: cell-based, human; details: >100 µM considered inactive; for IC50: read-out: IC50 ± SD, AGS
Procedure: as §1, with “cells. […] When comparing the pairs 3–4, 5–6 and 7–8 differing in one CH2 unit in the linker, the activity decreased with linker length.” for “cells.”
as §3

C. albicans ATCC 10231 = assay: Antifungal broth microdilution (CLSI M27-A3), growth inhibition; format: cell-based, Candida albicans; details: for MIC50 (minimum concentration to inhibit 50% of fungal growth), C. albicans: C. albicans ATCC 10231; for Antifungal activity against C. albicans (in words): at the assayed concentrations (250–3.9 μg∙mL^−1)
In short: (§4)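 Yeast inocula (1–5 × 10^3 CFU/mL) were tested by CLSI M27-A3 broth microdilution in RPMI-1640 at 250–3.9 μg∙mL^−1 (DMSO ≤1%) for 48 h at 30 °C in the dark. Growth was read at OD405, and % inhibition was calculated against growth and sterility controls in triplicate. MIC100 is total inhibition; MIC50 is 50% inhibition.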

C. neoformans ATCC 32264 = assay: as above; format: cell-based, Cryptococcus neoformans; details: for MIC50 (minimum concentration to inhibit 50% of fungal growth), C. neoformans: C. neoformans ATCC 32264
In short: as §4

SMILES	IC50 [1]	IC50 [2]	IC50 [3]	IC50 [4]	Inhibition percentage against C. albicans ATCC 10231 (C. albicans ATCC 10231; 3.9 μg∙mL^−1, 48 h)	Inhibition percentage against C. albicans ATCC 10231 (C. albicans ATCC 10231; 7.8 μg∙mL^−1, 48 h)	Inhibition percentage against C. albicans ATCC 10231 (C. albicans ATCC 10231; 15.6 μg∙mL^−1, 48 h)	Inhibition percentage against C. albicans ATCC 10231 (C. albicans ATCC 10231; 62.5 μg∙mL^−1, 48 h)	Inhibition percentage against C. albicans ATCC 10231 (C. albicans ATCC 10231; 125 μg∙mL^−1, 48 h)	Inhibition percentage against C. albicans ATCC 10231 (C. albicans ATCC 10231; 250 μg∙mL^−1, 48 h)	Inhibition percentage against C. albicans ATCC 10231 (C. albicans ATCC 10231; 31. μg∙mL^−1, 48 h)	MIC50 (minimum concentration to inhibit 50% of fungal growth), C. albicans (C. albicans ATCC 10231)	Inhibition percentage against C. neoformans ATCC 32264 (C. neoformans ATCC 32264; 3.9 μg∙mL^−1, 48 h)	Inhibition percentage against C. neoformans ATCC 32264 (C. neoformans ATCC 32264; 7.8 μg∙mL^−1, 48 h)	Inhibition percentage against C. neoformans ATCC 32264 (C. neoformans ATCC 32264; 15.6 μg∙mL^−1, 48 h)	Inhibition percentage against C. neoformans ATCC 32264 (C. neoformans ATCC 32264; 31.2 μg∙mL^−1, 48 h)	Inhibition percentage against C. neoformans ATCC 32264 (C. neoformans ATCC 32264; 62.5 μg∙mL^−1, 48 h)	Inhibition percentage against C. neoformans ATCC 32264 (C. neoformans ATCC 32264; 125 μg∙mL^−1, 48 h)	Inhibition percentage against C. neoformans ATCC 32264 (C. neoformans ATCC 32264; 250 μg∙mL^−1, 48 h)	MIC50 (minimum concentration to inhibit 50% of fungal growth), C. neoformans (C. neoformans ATCC 32264)	further results
CC(C)c1cc2c3c(c1OC(=O)CCCc1cn(Cc4ccc([N+](=O)[O-])cc4)nn1)OC(=O)C31CCCC(C)(C)C1CC2 (stereo not shown) [Compound 8, 12-O-(4-(1-(4-nitrobenzyl)-1H-1,2,3-triazol-4-yl)-butanoyloxy)-11,20-epoxyabieta-8,11,13-trien-20-one]	> 100 µM	> 100 µM	> 100 µM	> 100 µM	0.0%	0.0%	0.0%	5.6 ± 1.7%	14.0 ± 1.9%	27.5 ± 2.0%	2.5 ± 1.3%	>250 µg/mL	0.0%	0.0%	0.3 ± 0.1%	0.8 ± 0.1%	8.2 ± 2.8%	9.5 ± 2.9%	10.4 ± 2.8%	>250 µg/mL	
CC(C)c1cc2c3c(c1OC(=O)CCc1cn(Cc4ccccc4)nn1)OC(=O)[C@@]31CCCC(C)(C)[C@@H]1CC2 [Compound 3, 12-O-(3-(1-benzyl-1H-1,2,3-triazol-4-yl)-propanoyloxy)-11,20-epoxyabieta-8,11,13-trien-20-one]	73 ± 3.9 µM	43.4 ± 3 µM	74.1 ± 3.9 µM	48.9 ± 3.9 µM	5.7 ± 0.8%	8.1 ± 0.8%	9.1 ± 1.5%	14.3 ± 2.0%	20.2 ± 2.2%	20.3 ± 3.9%	11.1 ± 0.4%	>250 µg/mL	4.9 ± 0.5%	9.0 ± 0.3%	9.7 ± 0.1%	14.3 ± 2.0%	16.7 ± 0.5%	18.4 ± 0.2%	26.7 ± 1.5%	>250 µg/mL	IC50 ± SD, MRC-5 [2]: active; IC50 ± SD, AGS [4]: active; Antifungal activity against C. albicans (in words) (C. albicans ATCC 10231): devoid of activity
CC(C)c1cc2c3c(c1OC(=O)CCc1cn(CSc4ccccc4)nn1)OC(=O)[C@@]31CCCC(C)(C)[C@@H]1CC2 [Compound 1, 12-O-(3-(((1-phenylthio)methyl)-1H-1,2,3-triazol-4-yl)-propanoyloxy)-11,20-epoxyabieta-8,11,13-trien-20-one]	81.7 ± 4.3 µM	45.1 ± 2.1 µM	> 100 µM	39.2 ± 2.3 µM	0.0%	0.0%	0.4 ± 0.2%	3.5 ± 0.3%	8.2 ± 0.1%	17.1 ± 0.1%	1.9 ± 0.3%	>250 µg/mL	0.0%	0.0%	0.0%	3.7 ± 0.1%	3.9 ± 0.4%	8.9 ± 0.7%	11.0 ± 0.5%	>250 µg/mL	Antifungal activity against C. albicans (in words) (C. albicans ATCC 10231): devoid of activity
